This passage reports EC50 results from patent US20250019373A1, “ARYL OR HETEROARYL DERIVATIVE, AND PHARMACEUTICAL COMPOSITION COMPRISING SAME AS ACTIVE INGREDIENT FOR PREVENTION OR TREATMENT OF KINASE-RELATED DISEASES” (VORONOI INC., priority 2021, published 2025).

SMILES strings stand for the structures.

This test relates to HT-29 cells. The test is described as follows: Cell necrosis inhibitory activity under necroptosis-inducing conditions (TNF-α, Z-VAD-FMK, LCL161) in HT-29 cells, Cell Titer-Glo. The format is cell-based. Particulars: Homo sapiens, 100 ng/mL TNF-α + 25 μM Z-VAD-FMK + Smac mimetic LCL161, 24 hours, cell viability. The method, then:
To evaluate the cell necrosis inhibitory activity of the compound according to the present invention, an experiment was conducted as follows.
To evaluate the efficacy of inhibiting cell necrosis under TNF-α-mediated cell death-inducing conditions, a HT-29 cell line (Korean Cell Line Bank Accession No. #30038) was cultured in RPMI-1640 (HyClone #SH3027.01) medium containing 10% fetal bovine serum (FBS) and 1% penicillin/streptomycin to analyze cell viability. More specifically, for testing, the cell line was seeded in a 96-well flat bottom plate (Corning #3903) at a concentration of 10,000 cells/well and incubated at 37° C. under a 5% CO2 condition for 24 hours. Each well was treated with 100 ng/mL TNF-α, 25 μM pan-caspase inhibitor (Z-VAD-FMK, Selleckchem #S8102), and 10 µM Smac mimetic LCL161 (Selleckchem #S7009) and allowed to react for 10 minutes. The compounds of Examples were treated at 11 concentrations (the highest concentration being 0.1 μM or 1 μM) with a 3-fold concentration gradient, and as a control, dimethyl sulfoxide (DMSO) was treated at a concentration of 0.05% (v/v), which is the same as those when the compounds were treated. The treated cells were incubated for 24 hours. To confirm the degree of cell viability, 100 μL of Cell Titer-Glo (Promega #G7573) was added to the medium of the cultured cells and cultured for additional 10 minutes, and then luminescence was measured using a microplate reader. Based on the […] of control cells that were not treated with the compound, the degree of cell necrosis inhibitory activity was calculated according to the treatment concentration of each compound. Here, the concentration at which the cell necrosis inhibitory activity was 50% was determined as an EC50 (nM) value and calculated using Prism (ver. 8.4.3 #GraphPad) software.
(ATP-based viability assays read luminescence as a measure of living cells.)

What is called EC50 is the concentration at which the effect is half-maximal. As for `Cc1ncc(-c2ccc3nc(N)nn3c2)cc1NC(=O)N1OCC[C@H]1c1ccc(F)c(Cl)c1` [Example 42, (S)-N-(5-(2-amino-[1,2,4]triazolo[1,5-a]pyridin-6-yl)-2-methylpyridin-3-yl)-3-(3-chloro-4-fluorophenyl)isoxazolidine-2-carboxamide], the EC50 stood at 0.6 nM.

Consider `COc1ccc(-c2ccc3nc(NC(C)=O)sc3c2)cc1NC(=O)N1OCC[C@H]1c1ccccc1` [Example 27, (S)-N-(5-(2-acetamidobenzo[d]thiazol-6-yl)-2-methoxyphenyl)-3-phenylisoxazolidine-2-carboxamide], for which the EC50 came to 1 nM.

For `Cc1ncc(-c2ccn3nc(N)nc3c2)cc1NC(=O)N1OCC[C@H]1c1ccccc1` [Example 50, (S)-N-(5-(2-amino-[1,2,4]triazolo[1,5-a]pyridin-7-yl)-2-methylpyridin-3-yl)-3-phenylisoxazolidine-2-carboxamide], the EC50 amounted to 1.3 nM. In the case of `Cc1ncc(-c2ccc3nc(N)nn3c2)cc1NC(=O)N1OCC[C@H]1c1cc(F)cc(F)c1` [Example 38, (S)-N-(5-(2-amino-[1,2,4]triazolo[1,5-a]pyridin-6-yl)-2-methylpyridin-3-yl)-3-(3,5-difluorophenyl)isoxazolidine-2-carboxamide], the EC50 came out at 1.6 nM.

Regarding `C#Cc1cnc2ccc(-c3ccc(C)c(NC(=O)N4OCC[C@H]4c4ccccc4)c3)cn12` [Example 116, (S)-N-(5-(3-ethynylimidazo[1,2-a]pyridin-6-yl)-2-methylphenyl)-3-phenylisoxazolidine-2-carboxamide], the EC50 stood at 1 nM. With `Cc1ccc(-c2ccc3nc(N)sc3n2)cc1NC(=O)N1OCC[C@H]1c1ccccc1` [Example 98, (S)-N-(5-(2-aminothiazolo[5,4-b]pyridin-5-yl)-2-methylphenyl)-3-phenylisoxazolidine-2-carboxamide] the figure was 0.3 nM; with `Cc1cc(F)c(-c2ccc3nc(N)nn3c2)cc1NC(=O)N1OCC[C@H]1c1ccccc1` [Example 34, (S)-N-(5-(2-amino-[1,2,4]triazolo[1,5-a]pyridin-6-yl)-4-fluoro-2-methylphenyl)-3-phenylisoxazolidine-2-carboxamide], 0.5 nM. Turning to `CNC(=O)c1n[nH]c2cc(-c3cc(NC(=O)N4OCC[C@H]4c4ccccc4)cnc3C)ccc12` [Example 18, (S)-N-(6-methyl-5-(3-(methylcarbamoyl)-1H-indazol-6-yl)pyridin-3-y1)-3-phenylisoxazolidine-2-carboxamide], the EC50 was 0.3 nM.

Consider `Cc1ccc(-c2ccn3nc(N)nc3c2)cc1NC(=O)N1OCC[C@H]1c1cc(F)cc(F)c1` [Example 63, (S)-N-(5-(2-amino-[1,2,4]triazolo[1,5-a]pyridin-7-yl)-2-methylphenyl)-3-(3,5-difluorophenyl)isoxazolidine-2-carboxamide], for which the EC50 turned out to be 0.2 nM. For `Nc1nc2ccc(-c3ccc(F)c(NC(=O)N4OCC[C@H]4c4ccccc4)c3)cn2n1` [Example 96, (S)-N-(5-(2-amino-[1,2,4]triazolo[1,5-a]pyridin-6-yl)-2-fluorophenyl)-3-phenylisoxazolidine-2-carboxamide], the half-maximal effective concentration (EC50) was determined as 1.9 nM. For the compound `Cc1ncc(-c2ccc3nc(N)nn3c2)cc1NC(=O)N1OCC[C@H]1c1ccc(Cl)c(C(F)(F)F)c1` [Example 44, (S)-N-(5-(2-amino-[1,2,4]triazolo[1,5-a]pyridin-6-yl)-2-methylpyridin-3-yl)-3-(4-chloro-3-(trifluoromethyl)phenyl)isoxazolidine-2-carboxamide], the EC50 was found to be 4.1 nM. In the case of `C#Cc1cnc2ccc(-c3ccc(C)c(NC(=O)N4OCC[C@H]4c4ccccc4)c3)nn12` [Example 125, (S)-N-(5-(3-ethynylimidazo[1,2-b]pyridazin-6-yl)-2-methylphenyl)-3-phenylisoxazolidine-2-carboxamide] it was 1.4 nM; in that of `CC(=O)Nc1nc2ccc(-c3cnc(C)c(NC(=O)N4OCC[C@H]4c4ccccc4)c3)cc2s1` [Example 28, (S)-N-(5-(2-acetamidobenzo[d]thiazol-6-yl)-2-methylpyridin-3-yl)-3-phenylisoxazolidine-2-carboxamide], 0.2 nM; in that of `CNC(=O)c1n[nH]c2cc(-c3cnc(OC)c(NC(=O)N4OCC[C@H]4c4ccccc4)c3)ccc12` [Example 22, (S)-N-(2-methoxy-5-(3-(methylcarbamoyl)-1H-indazol-6-yl)pyridin-3-yl)-3-phenylisoxazolidine-2-carboxamide], 0.3 nM. Turning to `Cc1ncc(-c2ccc3nc(N)nn3c2)cc1NC(=O)N1OCC[C@H]1c1cccc(C#N)c1` [Example 46, (S)-N-(5-(2-amino-[1,2,4]triazolo[1,5-a]pyridin-6-yl)-2-methylpyridin-3-yl)-3-(3-cyanophenyl)isoxazolidine-2-carboxamide], the EC50 was determined as 19.4 nM. Turning to `Cc1ccc(-c2cc3c(cn2)ncn3C)cc1NC(=O)N1OCC[C@H]1c1ccccc1` [Example 133, (S)-N-(2-methyl-5-(1-methyl-1H-imidazo[4,5-c]pyridin-6-yl)phenyl)-3-phenylisoxazolidine-2-carboxamide], the EC50 was 6.5 nM.

As for `Nc1nc2cc(-c3ccc(Cl)c(NC(=O)N4OCC[C@H]4c4ccccc4)c3)ccn2n1` [Example 124, (S)-N-(5-(2-amino-[1,2,4]triazolo[1,5-a]pyridin-7-yl)-2-chlorophenyl)-3-phenylisoxazolidine-2-carboxamide], the EC50 was 0.2 nM.

On to `Cc1ccc(-c2ccc3ncnn3c2)cc1NC(=O)N1OCC[C@H]1c1ccccc1` [Example 101, (S)-N-(5-([1,2,4]triazolo[1,5-a]pyridin-6-yl)-2-methylphenyl)-3-phenylisoxazolidine-2-carboxamide], for which the EC50 is 6.2 nM. For the compound `COc1ncc(-c2ccc3nc(NC(=O)CO)cn3n2)cc1NC(=O)N1OCC[C@H]1c1ccccc1` [Example 5, (S)-N-(5-(2-(2-hydroxyacetamido)imidazo[1,2-b]pyridazin-6-yl)-2-methoxypyridin-3-yl)-3-phenylisoxazolidine-2-carboxamide], the EC50 stood at 2.9 nM.

For `Cc1ccc(-c2ccc3nc(N)oc3c2)cc1NC(=O)N1OCC[C@H]1c1ccccc1` [Example 109, (S)-N-(5-(2-aminobenzo[d]oxazol-6-yl)-2-methylphenyl)-3-phenylisoxazolidine-2-carboxamide], the EC50 was 1 nM. In the case of `Cc1ccc([C@@H]2CCON2C(=O)Nc2cc(-c3ccc4nc(N)nn4c3)cnc2C)cn1` [Example 51, (S)-N-(5-(2-amino-[1,2,4]triazolo[1,5-a]pyridin-6-yl)-2-methylpyridin-3-yl)-3-(6-methylpyridin-3-yl)isoxazolidine-2-carboxamide], the EC50 came to 23.3 nM. In the case of `Cc1ccc(-c2ccc3nnc(C(F)(F)F)n3n2)cc1NC(=O)N1OCC[C@H]1c1ccccc1` [Example 108, (S)-N-(2-methyl-5-(3-(trifluoromethyl)-[1,2,4]triazolo[4,3-b]pyridazin-6-yl)phenyl)-3-phenylisoxazolidine-2-carboxamide] it was 29.8 nM; in that of `Cc1ccc(-c2ccc3nc(N)cn3n2)cc1NC(=O)N1OCC[C@H]1c1ccccc1` [Example 95, (S)-N-(5-(2-aminoimidazo[1,2-b]pyridazin-6-yl)-2-methylphenyl)-3-phenylisoxazolidine-2-carboxamide], 7.5 nM; in that of `Cc1ccc(-c2ccn3nc(N)cc3c2)cc1NC(=O)N1CCOC[C@H]1c1ccccc1` [Example 136, (R)-N-(5-(2-aminopyrazolo[1,5-a]pyridin-5-yl)-2-methylphenyl)-3-phenylmorpholine-4-carboxamide], 5.4 nM. Take `Cc1ncc(-c2ccc3nc(N)nn3c2)cc1NC(=O)N1OCC[C@H]1c1ccc(Cl)cc1` [Example 69, (S)-N-(5-(2-amino-[1,2,4]triazolo[1,5-a]pyridin-6-yl)-2-methylpyridin-3-yl)-3-(4-chlorophenyl)isoxazolidine-2-carboxamide]: the EC50 is 0.4 nM.

For the compound `Cc1ncc(-c2ccc3nc(N)nn3c2)cc1NC(=O)N1OCC[C@H]1c1cccc(F)c1` [Example 37, (S)-N-(5-(2-amino-[1,2,4]triazolo[1,5-a]pyridin-6-yl)-2-methylpyridin-3-yl)-3-(3-fluorophenyl)isoxazolidine-2-carboxamide], the EC50 amounted to 1.1 nM.

In the case of `Cc1ccc(-c2ccc3ncn(C)c3n2)cc1NC(=O)N1OCC[C@H]1c1ccccc1` [Example 143, (S)-N-(2-methyl-5-(3-methyl-3H-imidazo[4,5-b]pyridin-5-yl)phenyl)-3-phenylisoxazolidine-2-carboxamide], the EC50 is 5 nM. As to `Cc1ncc(-c2ccc3nc(N)nn3c2)cc1NC(=O)N1OCC[C@H]1c1ccc(F)c(F)c1` [Example 55, (S)-N-(5-(2-amino-[1,2,4]triazolo[1,5-a]pyridin-6-yl)-2-methylpyridin-3-yl)-3-(3,4-difluorophenyl)isoxazolidine-2-carboxamide], the EC50 worked out at 0.6 nM. Turning to `Cc1ccc(-c2ccc3nnc(C)n3n2)cc1NC(=O)N1OCC[C@H]1c1ccccc1` [Example 107, (S)-N-(2-methyl-5-(3-methyl-[1,2,4]triazolo[4,3-b]pyridazin-6-yl)phenyl)-3-phenylisoxazolidine-2-carboxamide], the EC50 is 23.2 nM.
